Results published in paper PMC6522510 (Nature Communications, 2019).
pEC50, pIC50: −log10 of the molar value. Values joined by “and” are separate entries in the source; they are usually repeats but may differ in a detail not shown here. Equal values may be shown once. Read-outs that look alike come from different tables or passages of the source.

Legend:
[1] = test system: MOLM-13; experiment: Secondary dose-response HTS, Cell Titer Glo; assay type: cell-based, human; conditions: for pEC50: Homo sapiens
[2] = test system: MV4-11; experiment: Secondary dose-response HTS, Cell Titer Glo; assay type: cell-based, human; conditions: for pEC50: Homo sapiens
[3] = test system: CHRF288-11; experiment: Secondary dose-response HTS, Cell Titer Glo; assay type: cell-based, human; conditions: Homo sapiens
[4] = test system: CMK; experiment: Secondary dose-response HTS, Cell Titer Glo; assay type: cell-based, human; conditions: CMK; for pEC50: Homo sapiens
[5] = test system: CMS; experiment: Secondary dose-response HTS, Cell Titer Glo; assay type: cell-based, human; conditions: Homo sapiens
[6] = test system: M07e; experiment: Secondary dose-response HTS, Cell Titer Glo; assay type: cell-based, human; conditions: Homo sapiens, M-07e
[7] = test system: ML2; experiment: Secondary dose-response HTS, Cell Titer Glo; assay type: cell-based, human; conditions: Homo sapiens
[8] = test system: U937; experiment: Secondary dose-response HTS, Cell Titer Glo; assay type: cell-based, human; conditions: Homo sapiens
[9] = test system: MV4-11; experiment: cells; set-up: species or system AML cell lines (8); conditions: Homo sapiens, MV4-11, 72 h, read-out: MV4-11
[10] = test system: CMK; experiment: cells; set-up: species or system AML cell lines (8); conditions: Homo sapiens, 72 h, read-out: CMK
[11] = test system: MOLM-13; experiment: cells; set-up: species or system AML cell lines (8); Secondary HTS, 10-point dose-response in triplicate, Cell Titer Glo viability, four-parameter fit EC50; conditions: Homo sapiens, read-out: MOLM-13
[12] = test system: CHRF288-11; experiment: cells; set-up: species or system AML cell lines (8); conditions: 72 h, read-out: CHRF288-11
[13] = test system: CMS; experiment: cells; set-up: species or system AML cell lines (8); conditions: 72 h, read-out: CMS
[14] = test system: M07e; experiment: cells; set-up: species or system AML cell lines (8); conditions: M-07e, 72 h, read-out: M07e
[15] = test system: U937; experiment: cells; set-up: species or system AML cell lines (8); conditions: Homo sapiens, U-937, 72 h, read-out: U937
[16] = test system: MLLr primary AML blast samples; experiment: Ex vivo drug treatment of primary AML blasts on mesenchymal stromal cells; assay type: cell-based; conditions: Homo sapiens; primary blasts on MSC, 96 h, range over patient samples
[17] = test system: AMKL primary AML blast samples; experiment: as above; assay type: cell-based; conditions: Homo sapiens; primary blasts on MSC, 96 h
[18] = test system: U937; experiment: cells; set-up: species or system AML cell lines (8); Secondary HTS, 10-point dose-response in triplicate, Cell Titer Glo viability, four-parameter fit EC50; conditions: Homo sapiens, U-937; 72 h cell viability; read-out: U937
[19] = test system: CHRF288-11; set-up: species or system AML cell lines (8); Primary HTS, single concentration about 10 uM, Cell Titer Glo viability; log10 luminescence, per cent inhibition relative to cycloheximide control; conditions: 72 h, 10 µM, inhibitor
[20] = test system: CMK; set-up: species or system AML cell lines (8); Primary HTS, single concentration about 10 uM, Cell Titer Glo viability; log10 luminescence, per cent inhibition relative to cycloheximide control; conditions: 72 h, 10 µM, inhibitor
[21] = test system: CMS; set-up: species or system AML cell lines (8); Primary HTS, single concentration about 10 uM, Cell Titer Glo viability; log10 luminescence, per cent inhibition relative to cycloheximide control; conditions: 72 h, 10 µM, inhibitor
[22] = test system: M07e; set-up: species or system AML cell lines (8); Primary HTS, single concentration about 10 uM, Cell Titer Glo viability; log10 luminescence, per cent inhibition relative to cycloheximide control; conditions: 72 h, 10 µM, inhibitor
[23] = test system: ML-2; set-up: species or system AML cell lines (8); Primary HTS, single concentration about 10 uM, Cell Titer Glo viability; log10 luminescence, per cent inhibition relative to cycloheximide control
[24] = test system: MOLM-13; set-up: species or system AML cell lines (8); Primary HTS, single concentration about 10 uM, Cell Titer Glo viability; log10 luminescence, per cent inhibition relative to cycloheximide control; conditions: 72 h, 10 µM, inhibitor
[25] = test system: MV4-11; set-up: species or system AML cell lines (8); Primary HTS, single concentration about 10 uM, Cell Titer Glo viability; log10 luminescence, per cent inhibition relative to cycloheximide control; conditions: 72 h, 10 µM, inhibitor
[26] = test system: U937; set-up: species or system AML cell lines (8); Primary HTS, single concentration about 10 uM, Cell Titer Glo viability; log10 luminescence, per cent inhibition relative to cycloheximide control; conditions: 72 h, 10 µM, inhibitor
[27] = secondary high-throughput screen, MOLM-13, read-out: average effective concentration, MOLM-13
[28] = secondary high-throughput screen, MV4-11
[29] = HTS, secondary high-throughput screen, CHRF288-11, read-out: average effective concentration, CHRF288-11
[30] = secondary high-throughput screen
[31] = HTS, secondary high-throughput screen, CMS, read-out: average effective concentration, CMS
[32] = secondary high-throughput screen, […], read-out: average effective concentration, M07e
[33] = secondary high-throughput screen, ML-2, read-out: average effective concentration, ML-2
[34] = U-937, secondary high-throughput screen, U937, read-out: average effective concentration, U937
[35] = secondary high-throughput screen, MV4-11, read-out: average effective concentration, MV4-11
[36] = secondary high-throughput screen, read-out: average effective concentration, CMK
[37] = secondary high-throughput screen, M07e, read-out: average effective concentration, M07e
[38] = secondary high-throughput screen, MOLM-13

| SMILES | pEC50 [1, 27] | pEC50 [3, 29] | pEC50 [5, 31] | pEC50 [6, 32] | pEC50 [7, 33] | pEC50 [8, 34] | pEC50 [9] | pEC50 [10] | pEC50 ([11]; 72 h cell viability) | pEC50 [2, 35] | pEC50 [4, 36] | also measured |
| --- | --- | --- | --- | --- | --- | --- | --- | --- | --- | --- | --- | --- |
| CCC(=O)CCCCC[C@@H]1NC(=O)[C@H]2CCCCN2C(=O)[C@H]([C@@H](C)CC)NC(=O)[C@H](Cc2cn(OC)c3ccccc23)NC1=O [APICIDIN] | 6.89 | 6.39 | 6.66 | 6.85 | 6.74 | 6.60 | < 5.00 | < 5.00 | – | – | – | average effective concentration, MV4-11 [2, 28]: Inactive; average effective concentration, CMK [4, 30]: Inactive |
| CC[C@H](NC(=O)[C@H](C)NC)C(=O)N1C[C@@H](O)C[C@H]1Cc1c(-c2[nH]c3cc(F)ccc3c2C[C@@H]2C[C@H](O)CN2C(=O)[C@H](CC)NC(=O)[C@H](C)NC)[nH]c2cc(F)ccc12 [BIRINAPANT] | – | – | – | – | 9.00 | – | < 5.00 | < 5.00 | < 5.00 | – | – | pEC50 [12]: < 5.00; pEC50 [13]: < 5.00; pEC50 [14]: < 5.00; pEC50 [15]: < 5.00 |
| CC(C)C[C@H](NC(=O)[C@H](Cc1ccccc1)NC(=O)c1cnccn1)B(O)O [Bortezomib, reference compound] | 8.77 | – | – | – | 8.92 | 7.68 | – | – | – | 8.64 | 8.12 | pEC50 ([1]; MOLM-13, secondary HTS, 72 h, average of triplicate, read-out: EC50 MOLM-13): 8.70; pEC50 ([2]; MV4-11, secondary HTS, 72 h, average of triplicate, read-out: EC50 MV4-11): 8.70; pEC50 ([3]; secondary HTS, 72 h, average of triplicate, read-out: EC50 CHRF288-11): 8.70; pEC50 ([4]; secondary HTS, 72 h, average of triplicate, read-out: EC50 CMK): 8.00; pEC50 ([5]; secondary HTS, 72 h, average of triplicate, read-out: EC50 CMS): 9.00; pEC50 ([6]; secondary HTS, 72 h, average of triplicate, read-out: EC50 M07e): 9.00; pEC50 [6, 37]: 8.82; pEC50 ([7]; ML-2, secondary HTS, 72 h, average of triplicate, read-out: EC50 ML2): 9.00; pEC50 ([8]; U-937, secondary HTS, 72 h, average of triplicate, read-out: EC50 U937): 7.70; pIC50 [16]: 8.30 to 8.80; pIC50 [17]: 7.70 |
| CC1=C(O)C(=O)C=C2C1=CC=C1[C@@]2(C)CC[C@@]2(C)[C@@H]3C[C@](C)(C(=O)O)CC[C@]3(C)CC[C@]12C [CELASTROL] | – | 7.12 | 7.19 | 6.03 | 7.17 | 7.10 | < 5.00 | – | < 5.00 | – | 7.16 | average effective concentration, MOLM-13 [1, 38]: Inactive; average effective concentration, MV4-11 [2, 28]: Inactive |
| CN1C(=O)[C@@]23C[C@]4([C@]56C[C@@]78SS[C@@](CO)(C(=O)N7[C@H]5Nc5ccccc56)N(C)C8=O)c5ccccc5N[C@@H]4N2C(=O)[C@]1(CO)SS3 [CHAETOCIN] | 7.21 | 7.92 | 8.00 | 7.92 | 7.59 | – | – | < 5.00 | – | 7.54 | – | average effective concentration, CMK [4, 30]: Inactive; pEC50 [18]: 8.11 |
| Nc1nc(Cl)nc2c1ncn2[C@H]1C[C@H](O)[C@@H](CO)O1 [CLADRIBINE] | 7.46 | 6.77 | – | – | 6.72 | 7.06 | – | – | – | 7.62 | 7.52 | pEC50 [6, 37]: 7.85; pEC50 [13]: < 5.00 |
| NC(=O)c1cccc(N)c1 [Compound 3-AMINOBENZAMIDE] | 5.49 | 5.52 | – | – | 5.49 | – | < 5.00 | < 5.00 | – | – | – | pEC50 [13]: < 5.00; pEC50 [14]: < 5.00; pEC50 [15]: < 5.00 |
| CN1C(=O)[C@]23CC4=CC=C[C@H](O)[C@H]4N2C(=O)[C@@]1(CO)SS3 [GLIOTOXIN] | – | 7.62 | 7.59 | 6.89 | 7.60 | 7.92 | < 5.00 | – | < 5.00 | – | 7.80 | average effective concentration, MOLM-13 [1, 38]: Inactive; average effective concentration, MV4-11 [2, 28]: Inactive; CHRF288-11 %inh [19]: 141.2% and 155.7%; CMK %inh [20]: 129.2% and 125%; CMS %inh [21]: 108.9% and 102.6%; M07e %inh [22]: 143.7% and 136.2%; ML-2 %inh ([23]; 72 h, 10 µM, inhibitor): 66.31%; ML-2 %inh ([23]; 72 h, 10 µM; inhibitor): 62.11%; MOLM-13 %inh [24]: 95.14% and 103.3%; MV4-11 %inh [25]: 84.27% and 75%; U937 %inh [26]: 86.1% and 87.37% |
| C=C1C(=O)O[C@@H]2C[C@@H](C)[C@@H]3C=CC(=O)[C@@]3(C)[C@@H](O)[C@H]12 [HELENALIN] | – | – | – | – | – | – | < 5.00 | – | < 5.00 | – | – | average effective concentration, MOLM-13 [1]: Inactive; average effective concentration, MV4-11 [2]: Inactive; pEC50 ([3]; HTS, read-out: average effective concentration, CHRF288-11): 6.77; pEC50 ([4]; read-out: average effective concentration, CMK): 6.72; pEC50 ([5]; HTS, read-out: average effective concentration, CMS): 6.68; pEC50 ([6]; read-out: average effective concentration, M07e): 6.47; pEC50 ([7]; ML-2, read-out: average effective concentration, ML-2): 6.89; pEC50 ([8]; U-937, read-out: average effective concentration, U937): 6.77 |
| C=CC(=O)N1CCC[C@@H](n2nc(-c3ccc(Oc4ccccc4)cc3)c3c(N)ncnc32)C1 [Ibrutinib, reference compound] | 5.17 | – | < 5.00 | – | – | 5.00 | – | – | – | 5.00 | < 5.00 | pIC50 [16]: < 4.70 |
| C[C@@H]1C[C@H]2O[C@@H]2/C=C\C=C\C(=O)Cc2c(Cl)c(O)cc(O)c2C(=O)O1 [RADICICOL] | 7.57 | 7.04 | 6.96 | – | 7.21 | 7.82 | – | – | – | 7.68 | 7.18 | pEC50 [14]: < 5.00 |
| CC(C)[C@]12O[C@H]1[C@@H]1O[C@]13[C@]1(O[C@H]1C[C@H]1C4=C(CC[C@@]13C)C(=O)OC4)[C@@H]2O [TRIPTOLIDE] | 6.92 | – | 7.15 | – | 7.21 | 7.00 | – | – | – | 6.64 | 8.00 | pEC50 [6, 37]: 8.00; pEC50 [12]: < 5.00 |
| COC(=O)[C@]1(C)CC[C@]2(C)CC[C@]3(C)C4=CC=C5C(=CC(=O)C(O)=C5C)[C@]4(C)CC[C@@]3(C)[C@@H]2C1 [[…]] | – | – | – | – | – | – | < 5.00 | – | – | – | – | pEC50 ([11]; MOLM-13, 72 h): < 5.00 |
